From US12692269B2, “Therapeutic compounds” (Genentech, Inc., priority 2019, dated 2026)

Key:
Type in all cases: binding
[1] = target: TEAD1 YAP50-100 (Homo sapiens, UniProt P28347); test: TEAD1-YAP HTRF (TR-FRET) protein-protein interaction assay; settings: TEAD1, YAP peptide 50-100, HTRF; for EC50: read-out: TEAD1 YAP50-100 HTRF combined: EC50
Summary of the method: (§1)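 His-tagged TEAD YAP-binding domain (aa 217-447) pre-bound to Eu anti-His tracer, incubated with compound 30 min, then biotinylated YAP (aa 50-100) or TAZ (aa 13-57) peptide with streptavidin-XL665 added for 60 min at room temperature. TR-FRET read at 665/615 nm; IC50 or EC50 from four-parameter fit.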

[2] = target: TEAD2 YAP50-100 (Homo sapiens, UniProt Q15562); test: TEAD2-YAP HTRF (TR-FRET) protein-protein interaction assay; settings: TEAD2, YAP peptide 50-100, HTRF; for EC50: read-out: TEAD2 YAP50-100 HTRF combined: EC50
TEAD2 YAP50-100, sequence (Q15562 217-447): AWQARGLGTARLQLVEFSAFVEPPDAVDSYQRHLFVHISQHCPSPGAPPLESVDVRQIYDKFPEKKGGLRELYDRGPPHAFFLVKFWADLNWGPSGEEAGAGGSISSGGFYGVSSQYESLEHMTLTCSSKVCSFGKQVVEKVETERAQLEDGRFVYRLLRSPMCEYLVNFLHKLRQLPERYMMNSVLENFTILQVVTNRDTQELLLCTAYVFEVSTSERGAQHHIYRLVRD
Summary of the method: as §1

[3] = target: TEAD3 YAP50-100 (Homo sapiens, UniProt Q99594); test: TEAD3-YAP HTRF (TR-FRET) protein-protein interaction assay; settings: TEAD3, YAP peptide 50-100, HTRF; for EC50: read-out: TEAD3 YAP50-100 HTRF combined: EC50
TEAD3 YAP50-100, sequence (Q99594 173-435 limits assumed): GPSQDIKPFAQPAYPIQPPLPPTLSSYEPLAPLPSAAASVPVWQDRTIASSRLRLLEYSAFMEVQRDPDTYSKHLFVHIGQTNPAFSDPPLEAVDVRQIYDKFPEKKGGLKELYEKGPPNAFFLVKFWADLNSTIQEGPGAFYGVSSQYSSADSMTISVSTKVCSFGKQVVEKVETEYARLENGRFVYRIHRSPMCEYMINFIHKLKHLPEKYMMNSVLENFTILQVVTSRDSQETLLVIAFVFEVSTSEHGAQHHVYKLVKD
Summary of the method: as §1

[4] = target: TEAD4 YAP50-100 (Homo sapiens, UniProt Q15561); test: TEAD4-YAP HTRF (TR-FRET) protein-protein interaction assay; settings: TEAD4, YAP peptide 50-100, HTRF; for EC50: read-out: TEAD4 YAP50-100 HTRF combined: EC50
TEAD4 YAP50-100, sequence (Q15561 217-434 limits assumed): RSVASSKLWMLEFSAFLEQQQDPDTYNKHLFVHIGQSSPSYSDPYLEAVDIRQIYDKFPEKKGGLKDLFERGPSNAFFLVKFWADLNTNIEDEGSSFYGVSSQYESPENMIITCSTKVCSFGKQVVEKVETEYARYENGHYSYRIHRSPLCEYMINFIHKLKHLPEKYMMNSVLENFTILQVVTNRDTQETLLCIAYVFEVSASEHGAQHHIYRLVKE
Summary of the method: as §1

[5] = target: TEAD1 TAZ (amino acids 13-57) (Homo sapiens, UniProt P28347); test: TEAD1-TAZ HTRF (TR-FRET) protein-protein interaction assay; settings: for TEAD1 TAZ HTRF combined: Max % Inhibition: TEAD1, TAZ peptide; for EC50: TEAD1-TAZ HTRF, TR-FRET 665 nm/615 nm, read-out: TEAD1 TAZ HTRF combined: EC50
TEAD1 TAZ (amino acids 13-57), sequence (P28347 167-426 limits assumed): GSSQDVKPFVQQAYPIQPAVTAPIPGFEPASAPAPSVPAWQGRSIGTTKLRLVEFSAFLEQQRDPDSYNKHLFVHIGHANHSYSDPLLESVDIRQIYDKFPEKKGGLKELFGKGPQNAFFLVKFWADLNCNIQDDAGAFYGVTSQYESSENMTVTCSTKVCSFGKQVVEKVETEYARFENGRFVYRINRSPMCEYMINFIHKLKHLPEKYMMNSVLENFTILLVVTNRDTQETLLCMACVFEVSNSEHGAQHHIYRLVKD
Summary of the method: as §1

[6] = target: TEAD2 TAZ (amino acids 13-57) (Homo sapiens, UniProt Q15562); test: TEAD2-TAZ HTRF (TR-FRET) protein-protein interaction assay; settings: for TEAD2 TAZ HTRF combined: Max % Inhibition: TEAD2, TAZ peptide; for EC50: TEAD2-TAZ HTRF, TR-FRET 665 nm/615 nm, read-out: TEAD2 TAZ HTRF combined: EC50
TEAD2 TAZ (amino acids 13-57), sequence (Q15562 217-447): as the sequence (Q15562 217-447) above
Summary of the method: as §1

[7] = target: TEAD3 TAZ (amino acids 13-57) (Homo sapiens, UniProt Q99594); test: TEAD3-TAZ HTRF (TR-FRET) protein-protein interaction assay; settings: for TEAD3 TAZ HTRF combined: Max % Inhibition: TEAD3, TAZ peptide; for EC50: TEAD3-TAZ HTRF, TR-FRET 665 nm/615 nm, read-out: TEAD3 TAZ HTRF combined: EC50
TEAD3 TAZ (amino acids 13-57), sequence (Q99594 173-435 limits assumed): as the sequence (Q99594 173-435 limits assumed) above
Summary of the method: as §1

[8] = target: TEAD4 TAZ (amino acids 13-57) (Homo sapiens, UniProt Q15561); test: TEAD4-TAZ HTRF (TR-FRET) protein-protein interaction assay; settings: for TEAD4 TAZ HTRF combined: Max % Inhibition: TEAD4, TAZ peptide; for EC50: TEAD4-TAZ HTRF, TR-FRET 665 nm/615 nm, read-out: TEAD4 TAZ HTRF combined: EC50
TEAD4 TAZ (amino acids 13-57), sequence (Q15561 217-434 limits assumed): as the sequence (Q15561 217-434 limits assumed) above
Summary of the method: as §1

TEAD1 YAP50-100, sequence (P28347 167-426 limits assumed): as the sequence (P28347 167-426 limits assumed) above

Compound | TEAD1 YAP50-100 HTRF combined: Max % Inhibition [1] [%] | EC50 [1] [nM] | TEAD2 YAP50-100 HTRF combined: Max % Inhibition [2] [%] | EC50 [2] [nM] | TEAD3 YAP50-100 HTRF combined: Max % Inhibition [3] [%] | EC50 [3] [nM] | TEAD4 YAP50-100 HTRF combined: Max % Inhibition [4] [%] | EC50 [4] [nM] | TEAD1 TAZ HTRF combined: Max % Inhibition [5] [%] | EC50 [5] [nM] | TEAD2 TAZ HTRF combined: Max % Inhibition [6] [%] | EC50 [6] [nM] | TEAD3 TAZ HTRF combined: Max % Inhibition [7] [%] | EC50 [7] [nM] | TEAD4 TAZ HTRF combined: Max % Inhibition [8] [%] | EC50 [8] [nM]
Cc1nccnc1-c1nn2c(=O)cc(-c3ccc(O[C@H](c4ccccc4)C(F)(F)F)cc3)[nH]c2c1C(=O)N1CC(CF)C1 [Compound 68, (R)-3-(3-(Fluoromethyl)azetidine-1-carbonyl)-2-(3-methylpyrazin-2-yl)-5-(4-(2,2,2-trifluoro-1-phenylethoxy)phenyl)pyrazolo[1,5-a]pyrimidin-7(4H)-one] | 65.0 | 190 | 84.0 | 60 | 67.5 | 510 | 64.5 | 5550 | 63.0 | 270 | 75.5 | 60 | 64.5 | 590 | 61.5 | 4950
C[C@H]1[C@@H](CF)CN1C(=O)c1c(C(=O)N(C)C)nn2c(=O)cc(-c3ccc(C4CCCCC4)cc3)[nH]c12 [Compound 5, 5-(4-Cyclohexylphenyl)-3-((2S,3S)-3-(fluoromethyl)-2-methylazetidine-1-carbonyl)-N,N-dimethyl-7-oxo-4,7-dihydropyrazolo[1,5-a]pyrimidine-2-carboxamide] | 73.0 | 80 | 83.0 | 10 | 75.5 | 130 | 56.0 | 250 | 62.0 | 70 | 78.5 | 10 | 66.5 | 140 | 41.0 | 170
C[C@@H]1[C@H](CF)CN1C(=O)c1c(-c2ncccn2)nn2c(=O)cc(-c3ccc(C4CCCCC4)cc3)[nH]c12 (single isomer, unassigned) [Isomer A, Example 40] | 75.0 | 60 | 76.0 | 10 | 68.5 | 140 | 53.5 | 30 | 64.5 | 80 | 70.5 | 10 | 63.0 | 160 | 53.0 | 30
Cc1nccnc1-c1nn2c(=O)cc(-c3ccc(C4CCC(F)(F)CC4)cc3)[nH]c2c1C(=O)N1CC(CF)C1 [Compound 55, 5-(4-(4,4-Difluorocyclohexyl)phenyl)-3-(3-(fluoromethyl)azetidine-1-carbonyl)-2-(3-methylpyrazin-2-yl)pyrazolo[1,5-a]pyrimidin-7(4H)-one] | 72.0 | 260 | 56.5 | 60 | 62.0 | 200 | 44.5 | 140 | 67.0 | 240 | 60.0 | 50 | 55.0 | 210 | 39.5 | 110
C[C@H]1[C@@H](CF)CN1C(=O)c1c(-c2ncccn2)nn2c(=O)cc(-c3ccc(CC4CCCC4)cc3)[nH]c12 (single isomer, unassigned) [Isomer A, Example 43] | 64.0 | 30 | 71.0 | 10 | 58.5 | 60 | 52.0 | 10 | 54.5 | 30 | 63.0 | 10 | 52.0 | 60 | 52.0 | 10
CC(C)(C)c1ccc(COc2cc(=O)n3nc(-c4ncccn4)c(C(=O)N4CC(CF)C4)c3[nH]2)cc1 [Compound 54, 5-((4-(Tert-butyl)benzyl)oxy)-3-(3-(fluoromethyl)azetidine-1-carbonyl)-2-(pyrimidin-2-yl)pyrazolo[1,5-a]pyrimidin-7(4H)-one] | 71.0 | 50 | 59.0 | 20 | 56.5 | 80 | 60.5 | 40 | 63.0 | 70 | 59.5 | 20 | 45.0 | 90 | 56.0 | 40
C[C@H]1[C@@H](CF)CN1C(=O)c1c(-c2cnccn2)nn2c(=O)cc(-c3ccc(CC4CCCC4)cc3)[nH]c12 (single isomer, unassigned) [Isomer B, Example 44, Cis-5-(4-(cyclopentylmethyl)phenyl)-3-(3-(fluoromethyl)-2-methylazetidine-1-carbonyl)-2-(pyrazin-2-yl)pyrazolo[1,5-a]pyrimidin-7(4H)-one] | 69.0 | 30 | 70.0 | 10 | 61.5 | 50 | 50.5 | 20 | 59.5 | 40 | 67.5 | 10 | 56.0 | 50 | 52.0 | 20
